From US5194432A, “Cephem compounds” (Fujisawa Pharmaceutical Co., Ltd., priority 1985, dated 1993)
In brackets after ≈: the same amount, converted by molar mass.

Experiments:
Assay type in all cases: cell-based
P. mirabilis 1 = test: In vitro antibacterial activity, two-fold agar-plate dilution method (MIC), P. mirabilis 1; conditions: Proteus mirabilis, heart infusion agar, 10^6 viable cells per ml, 37° C., 20 hours, read-out: MIC (minimal inhibitory concentration)
Method: (§1) In vitro antibacterial activity was determined by the two-fold agar-plate dilution method as described below.
(§2) One loopful of an overnight culture of each test strain in Trypticase-soy broth (10^6 viable cells per ml) was streaked on heart infusion agar (HI-agar) containing graded concentrations of representative test compound, and the minimal inhibitory concentration (MIC) was expressed in terms of μg/ml after incubation at 37° C. for 20 hours.

E. coli 31 = test: In vitro antibacterial activity, two-fold agar-plate dilution method (MIC), E. coli 31; conditions: Escherichia coli, heart infusion agar, 10^6 viable cells per ml, 37° C., 20 hours, read-out: MIC (minimal inhibitory concentration)
Method: as §1, §2

P. vulgaris IAM1025 = test: In vitro antibacterial activity, two-fold agar-plate dilution method (MIC), P. vulgaris IAM1025; conditions: Proteus vulgaris, heart infusion agar, 10^6 viable cells per ml, 37° C., 20 hours, read-out: MIC (minimal inhibitory concentration)
Method: as §1, §2

| SMILES | MIC (P. mirabilis 1) | MIC (E. coli 31) | MIC (P. vulgaris IAM1025) |
| --- | --- | --- | --- |
| Cn1ccc[n+]1CC1=C(C(=O)[O-])N2C(=O)[C@@H](NC(=O)/C(=N\OC(F)F)c3csc(N)n3)[C@H]2SC1 [Compound A, 7β-[2-(2-Aminothiazol-4-yl)-2-(difluoromethoxyimino)acetamido]-3-(2-methyl-1-pyrazolio)methyl-3-cephem-4-carboxylate (syn isomer)] | 0.05 µg/mL (≈ 0.0974 µM) | < 0.025 µg/mL | 0.05 µg/mL (≈ 0.0974 µM) |
| Cn1ccc[n+]1CC1=C(C(=O)[O-])N2C(=O)[C@@H](NC(=O)/C(=N\OC3C=CCC3)c3csc(N)n3)[C@H]2SC1 (stereo partly drawn) [Compound B, 7β-[2-(2-Aminothiazol-4-yl)-2-(2-cyclopenten-1-yloxyimino)acetamido]-3-(2-methyl-1-pyrazolio)methyl-3-cephem-4-carboxylate (syn isomer)] | 0.2 µg/mL (≈ 0.378 µM) | 0.05 µg/mL (≈ 0.0944 µM) | 0.05 µg/mL (≈ 0.0944 µM) |
| CO/N=C(\C(=O)N[C@@H]1C(=O)N2C(C(=O)[O-])=C(C[n+]3cc(C)c(N)n3C)CS[C@H]12)c1csc(N)n1 [Compound C, 7β-[2-(2-Aminothiazol-4-yl)-2-methoxyiminoacetamido]-3-(3-amino-2,4-dimethyl-1-pyrazolio)methyl-3-cephem-4-carboxylate (syn isomer)] | 0.05 µg/mL (≈ 0.0987 µM) | ≤ 0.025 µg/mL | ≤ 0.025 µg/mL |
| Cc1c[n+](CC2=C(C(=O)[O-])N3C(=O)[C@@H](NC(=O)/C(=N\OC(F)F)c4csc(N)n4)[C@H]3SC2)n(C)c1N [Compound D, 7β-[2-(2-Aminothiazol-4-yl)-2-(difluoromethoxyimino)acetamido]-3-(3-amino-2,4-dimethyl-1-pyrazolio)methyl-3-cephem-4-carboxylate (syn isomer)] | 0.05 µg/mL (≈ 0.0922 µM) | ≤ 0.025 µg/mL | ≤ 0.025 µg/mL |
